This is an account of results in US6346260B1, “Microbicidal active ingredients” (Ciba Specialty Chemicals Corporation, priority 1999, dated 2002).

Broadly, the MIC is the lowest concentration found to suppress growth.

Values after ≈ are worked out from the molar mass of the structure shown.

What all share (type): cell-based
For experiment [1], the system named is Aspergillus niger ATCC 6275. Nature of the experiment: MIC in microtitre plates, Aspergillus niger. The following applies: ATCC6275, 120 h; Table 2; Aspergillus niger ATCC 6275; 5 days at 28° C.; ≦20% growth; read-out: MIC AN. Here is the method:
(§1) Determination of Antimicrobial Activity in Accordance with the Microtitre Plate Method Determination of the Minimum Inhibitory Concentration (MIC value) in Microtitre Plates Mycological slant agar for the preculture of moulds. Aspergillus niger ATCC 6275 The test substances are predissolved in dimethyl sulfoxide (DMSO) and tested in a dilution series of 1:2. Bacteria and yeast are cultured overnight in CASO bouillon, the mould on mycological slant agar and rinsed off with 10 ml of 0.85% sodium chloride solution (+0.1% TritonX-100). All test organisms are adjusted to an organism count of 1-5*10^6 CFU/ml with 0.85% sodium chloride solution. The test substances are prepipetted into microtitre plates in an amount of 8 μl per well. Previously diluted test organism suspensions are diluted 1:100 in CASO bouillon (bacteria and yeast) and Sabouraud 2% glucose bouillon (mould) and added to the test substances in an amount of 192 μl per well. The test batches are incubated for 48 hours at 37° C. (bacteria and yeast) or for 5 days at 28° C. (mould). After incubation, the growth is determined by reference to the turbidity of the test batches (optical density) at 620 nm in a microplate reader. The minimum inhibitory concentration (MIC value) is the concentration of substance at which (compared with the growth of the control) an appreciable inhibition of the growth (≦20% growth) of the test organisms is ascertained. One microtitre plate is used for each test organism and substance concentration. All substances are tested in duplicate.

Experiment [2] deals with Staphylococcus hominis DSM 20368. Nature of the experiment: MIC in microtitre plates, Staphylococcus hominis. Particulars: DSM20368, Table 2, 48 hours at 37° C., ≦20% growth. Here is the method: as §1, with “casein-soybean flour-peptone bouillon” for “Mycological slant agar”, “preparation” for “preculture”, “the precultures of the test bacteria and yeast. Staphylococcus hominis DSM 20328” for “moulds. Aspergillus niger ATCC 6275”

The test system of experiment [3] is Candida albicans ATCC 10231. Briefly: MIC in microtitre plates, Candida albicans. Particulars: ATCC10231; Table 2; Candida albicans ATCC 10231; 48 hours at 37° C.; ≦20% growth; read-out: MIC CA. Here is the method: as §1, with “casein-soybean flour-peptone bouillon” for “Mycological slant agar”, “preparation” for “preculture”, “the precultures of the test bacteria and yeast. Candida albicans” for “moulds. Aspergillus niger”, “10231” for “6275”

The subject of experiment [4] is Escherichia coli NCTC 8196. Nature of the experiment: MIC in microtitre plates, Escherichia coli. The following applies: NCTC8196; Table 2; Escherichia coli NCTC 8196; 48 hours at 37° C.; ≦20% growth; read-out: MIC EC. How it is done: as §1, with “casein-soybean flour-peptone bouillon” for “Mycological slant agar”, “preparation” for “preculture”, “the precultures of the test bacteria and yeast. Escherichia coli NCTC 8196” for “moulds. Aspergillus niger ATCC 6275”

Experiment [5] relates to Pseudomonas aeruginosa CIP A-22. Nature of the experiment: MIC in microtitre plates, Pseudomonas aeruginosa. The following applies: CIPA22; Table 2; Pseudomonas aeruginosa CIP-A 22; 48 hours at 37° C.; ≦20% growth; read-out: MIC PA. How it is done:
as §1, with “casein-soybean flour-peptone bouillon” for “Mycological slant agar”, “preparation” for “preculture”, “the precultures of the test bacteria and yeast. Pseudomonas aeruginosa CIP A-22” for “moulds. Aspergillus niger ATCC 6275”

`Cc1ccccc1C(=O)CC(=O)c1ccc(O)cc1` [(106)]: the MIC in experiment [1], in experiment [2], in experiment [3], in experiment [4] and in experiment [5] was over 120 mg/L each time.

In the case of `COc1ccccc1C(=O)CC(=O)c1ccc(O)cc1` [(105)], the MIC in experiment [1], in experiment [2], in experiment [3], in experiment [4] and in experiment [5] was over 120 mg/L each time.

Take `O=C(CC(=O)c1ccc(O)cc1)c1ccccc1` [(111)]: the MIC in experiment [1], in experiment [2], in experiment [3], in experiment [4] and in experiment [5] was over 120 mg/L throughout.

Take `COC(=O)c1cccc(C(=O)CC(=O)c2ccc(O)cc2)c1` [(109)]: the MIC in experiment [1], in experiment [2], in experiment [3], in experiment [4] and in experiment [5] was over 120 mg/L each time.

For `Cc1cc(O)c(C(=O)CC(=O)c2ccccc2)cc1Cl` [(113)], the MIC in experiment [1], in experiment [2], in experiment [3], in experiment [4] and in experiment [5] was over 120 mg/L in each case.

For `Cc1ccc(O)c(C(=O)CC(=O)c2ccccc2)c1` [(112)], the minimum inhibitory concentration (MIC) in experiment [1], in experiment [2], in experiment [3], in experiment [4] and in experiment [5] was over 120 mg/L each time.

Regarding `O=C(CC(=O)c1ccccc1O)c1ccccc1` [(115)], the MIC in experiment [1], in experiment [2], in experiment [3], in experiment [4] and in experiment [5] was over 120 mg/L throughout.

Take `O=C(CC(=O)c1cccc(C(F)(F)F)c1)c1ccc(O)cc1` [(110)]: the MIC in experiment [1] is 60 mg/L (≈ 195 µM); in experiment [2], over 120 mg/L; in experiment [3], over 120 mg/L; in experiment [4], 60 mg/L (≈ 195 µM); in experiment [5], over 120 mg/L.

Turning to `COc1cc(C(=O)CC(=O)c2ccc(O)cc2)cc(OC)c1OC` [(108)], the MIC in experiment [1], in experiment [2], in experiment [3], in experiment [4] and in experiment [5] was over 120 mg/L throughout.

In the case of `COc1ccc(C(=O)CC(=O)c2ccc(O)cc2)cc1OC` [(107)], the minimal inhibitory concentration (MIC) is 120 mg/L (≈ 400 µM) in experiment [1]; over 120 mg/L in experiment [2]; over 120 mg/L in experiment [3]; 120 mg/L (≈ 400 µM) in experiment [4]; over 120 mg/L in experiment [5].

Turning to `O=C(CC(=O)c1cccs1)c1ccc(O)cc1` [(103)], the MIC in experiment [1], in experiment [2], in experiment [3], in experiment [4] and in experiment [5] was over 120 mg/L in each case.

`O=C(CC(=O)c1cc(Br)ccc1O)c1ccccc1` [(114)]: the MIC in experiment [1], in experiment [2], in experiment [3], in experiment [4] and in experiment [5] was over 120 mg/L each time.
